Test results published in article PMC4749215, “Simvastatin Sodium Salt and Fluvastatin Interact with Human Gap Junction Gamma-3 Protein” (PLoS ONE, 2016).
Counter-ions that a name gives are not always drawn.

Each molecule was assayed against T1, peptide A (contig29; N-terminal residues 1-25 of GJC3, hCx30.2/31.3) (Homo sapiens, UniProt Q8NFK1) (assay: surface plasmon resonance (ProteOn XPR36), immobilised biotinylated peptide). Details: PBS; 0-400 uM titration; N-terminal 25-residue peptide only.
T1 construct: not the full-length connexin
T1 sequence (Q8NFK1 1-25): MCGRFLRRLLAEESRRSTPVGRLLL
Type: binding

| SMILES | surface plasmon resonance (ProteOn XPR36), immobilised biotinylated peptide |
| --- | --- |
| CC1(C)[C@@H](OC(=O)CCC(=O)O)CC[C@]2(C)[C@H]3C(=O)C=C4[C@@H]5C[C@@](C)(C(=O)O)CC[C@]5(C)CC[C@@]4(C)[C@]3(C)CC[C@@H]12 [carbenoxolone disodium salt] | carbenoxolone, exhibited a pronounced binding interaction |
| O=C(O)c1cccnc1Nc1cccc(C(F)(F)F)c1 [niflumic acid] | concentration dependent binding profile of niflumic acid was observed with peptide A |
| CCC(C)(C)C(=O)O[C@H]1C[C@@H](C)C=C2C=C[C@H](C)[C@H](CC[C@@H](O)C[C@@H](O)CC(=O)O)[C@H]21 [simvastatin sodium salt] | simvastatin acid sodium salt exhibited a weak, concentration dependent binding profile |
| CC(C)n1c(/C=C/C(O)CC(O)CC(=O)O)c(-c2ccc(F)cc2)c2ccccc21 (stereo not shown) [fluvastatin sodium salt] | fluvastatin sodium salt, more pronounced binding is seen to peptide A |
